From ChEMBL document CHEMBL5634161, “Discovery of benzamide-based PI3K/HDAC dual inhibitors with marked pro-apoptosis activity in lymphoma cells” (Eur J Med Chem, 2023)

Legend:
MM1.S = assay: Antiproliferative activity against human MM1.S cells incubated for 48 hrs by resazurin dye based fluorescence micro plate reader analysis; format: functional, cell-based
[1] = MRT (0 to infinity) in ICR mouse at 1 mg/kg, iv measured after 24 hrs by LC-MS/MS analysis; format: ADME, organism-based; settings: in vivo
[2] = Stability in mouse liver microsomes assessed as compound remaining at […] preincubated for 5 mins followed by NADPH addition and measured after 30 mins by LC-MS/MS analysis; format: ADME, Microsome; settings: time 35 min, read-out: Stability
[3] = Stability in mouse liver microsomes assessed as compound remaining at […] preincubated for 5 mins followed by NADPH addition and measured after 45 mins by LC-MS/MS analysis; format: ADME, Microsome; settings: time 50 min, read-out: Stability

- IC50 (MM1.S): 2900 nM
- MRT inf [1]: 2 h
- remaining at 0.5 h [2]: 45%
- remaining at 0.75 h [3]: 32.8%
Structure (SMILES): COc1nc(-c2ccc(NC(=O)Nc3ccc(C(=O)NCCCCCC(=O)Nc4ccccc4N)cc3)cc2)nc(N2CCOCC2)n1
